Numbers after ± are expanded uncertainties.
Assay: xn = mol fraction of the nth substance listed
Settings: Gas, Buoyancy - hydrostatic balance with magnetic suspension - one sinker

C [methane] + O=C=O
Settings | mass density [kg/m3]
333.12 K, 18006 kPa, x2 = 0.6015 | 310.346 ± 2.1
333.13 K, 5006 kPa, x2 = 0.8988 | 88.521 ± 0.4
333.13 K, 5996 kPa, x2 = 0.2017 | 50.919 ± 0.3
333.13 K, 7000 kPa, x2 = 0.0998 | 51.598 ± 0.33
333.13 K, 10993 kPa, x2 = 0.8988 | 274.201 ± 2.2
333.13 K, 12000 kPa, x2 = 0.6015 | 189.959 ± 1.2
333.13 K, 14996 kPa, x2 = 0.3997 | 186.621 ± 1.1
333.14 K, 4996 kPa, x2 = 0.2017 | 41.851 ± 0.26
333.14 K, 7998 kPa, x2 = 0.6015 | 114.282 ± 0.6
333.14 K, 10995 kPa, x2 = 0.6015 | 169.869 ± 0.99
333.14 K, 11002 kPa, x2 = 0.3997 | 130.586 ± 0.75
333.14 K, 11997 kPa, x2 = 0.8988 | 319.541 ± 2.8
333.14 K, 14998 kPa, x2 = 0.7985 | 360.976 ± 2.7
333.14 K, 18001 kPa, x2 = 0.0998 | 140.51 ± 0.95
333.15 K, 6001 kPa, x2 = 0.0998 | 43.781 ± 0.28
333.15 K, 8994 kPa, x2 = 0.6015 | 131.934 ± 0.7
333.15 K, 11999 kPa, x2 = 0.0998 | 92.187 ± 0.6
333.15 K, 14994 kPa, x2 = 0.2017 | 138.03 ± 0.88
333.15 K, 14999 kPa, x2 = 0.6015 | 251.317 ± 1.7
333.16 K, 7002 kPa, x2 = 0.6015 | 97.409 ± 0.51
333.16 K, 11003 kPa, x2 = 0.0998 | 83.984 ± 0.55
333.16 K, 12001 kPa, x2 = 0.2017 | 108.442 ± 0.67
333.16 K, 18000 kPa, x2 = 0.7985 | 447.149 ± 3.2
333.16 K, 18001 kPa, x2 = 0.3997 | 227.522 ± 1.4
333.17 K, 4004 kPa, x2 = 0.3997 | 41.983 ± 0.23
333.17 K, 4007 kPa, x2 = 0.8988 | 67.864 ± 0.3
333.17 K, 5002 kPa, x2 = 0.7985 | 80.565 ± 0.36
333.17 K, 7997 kPa, x2 = 0.8988 | 164.576 ± 0.89
333.18 K, 9007 kPa, x2 = 0.7985 | 170.905 ± 0.94
333.18 K, 9999 kPa, x2 = 0.0998 | 75.751 ± 0.49
333.18 K, 12003 kPa, x2 = 0.7985 | 260.729 ± 1.8
333.19 K, 7001 kPa, x2 = 0.8988 | 136.146 ± 0.71
333.19 K, 8000 kPa, x2 = 0.0998 | 59.549 ± 0.39
333.19 K, 8996 kPa, x2 = 0.8988 | 196.344 ± 1.3
333.19 K, 8999 kPa, x2 = 0.0998 | 67.601 ± 0.44
333.19 K, 9999 kPa, x2 = 0.7985 | 198.595 ± 1.2
333.19 K, 10001 kPa, x2 = 0.6015 | 150.602 ± 0.84
333.19 K, 11002 kPa, x2 = 0.7985 | 228.687 ± 1.5
333.2 K, 5991 kPa, x2 = 0.7985 | 100.196 ± 0.47
333.2 K, 6008 kPa, x2 = 0.3997 | 65.434 ± 0.34
333.2 K, 7994 kPa, x2 = 0.7985 | 145.123 ± 0.76
333.2 K, 8002 kPa, x2 = 0.2017 | 69.464 ± 0.42
333.21 K, 9996 kPa, x2 = 0.8988 | 232.812 ± 1.6
333.21 K, 18000 kPa, x2 = 0.8988 | 552.634 ± 4.4
333.22 K, 6999 kPa, x2 = 0.2017 | 60.167 ± 0.36
333.22 K, 7005 kPa, x2 = 0.7985 | 121.973 ± 0.6
333.22 K, 7995 kPa, x2 = 0.3997 | 90.268 ± 0.49
333.24 K, 6001 kPa, x2 = 0.8988 | 110.997 ± 0.54
353.02 K, 2999 kPa, x2 = 0.0998 | 19.722 ± 0.16
353.03 K, 10001 kPa, x2 = 0.6015 | 135.164 ± 0.69
353.05 K, 9004 kPa, x2 = 0.6015 | 119.448 ± 0.62
353.08 K, 12003 kPa, x2 = 0.8988 | 250.219 ± 1.6
353.08 K, 14998 kPa, x2 = 0.2017 | 125.022 ± 0.77
353.09 K, 11999 kPa, x2 = 0.6015 | 167.978 ± 0.89
353.09 K, 17992 kPa, x2 = 0.6015 | 269.799 ± 1.6
353.1 K, 8995 kPa, x2 = 0.8988 | 165.756 ± 0.91
353.1 K, 17997 kPa, x2 = 0.8988 | 437.7 ± 3.2
353.11 K, 12000 kPa, x2 = 0.3997 | 129.551 ± 0.71
353.11 K, 18006 kPa, x2 = 0.7985 | 362.285 ± 2.4
353.12 K, 5997 kPa, x2 = 0.8988 | 99.468 ± 0.47
353.12 K, 6004 kPa, x2 = 0.6015 | 74.991 ± 0.37
353.12 K, 18000 kPa, x2 = 0.3997 | 201.731 ± 1.2
353.13 K, 4000 kPa, x2 = 0.8988 | 61.9 ± 0.27
353.13 K, 6004 kPa, x2 = 0.3997 | 60.111 ± 0.32
353.13 K, 14997 kPa, x2 = 0.3997 | 165.894 ± 0.96
353.14 K, 9003 kPa, x2 = 0.0998 | 62.172 ± 0.4
353.14 K, 14999 kPa, x2 = 0.6015 | 219.076 ± 1.3
353.15 K, 6003 kPa, x2 = 0.7985 | 90.263 ± 0.42
353.15 K, 14995 kPa, x2 = 0.0998 | 106.161 ± 0.7
353.15 K, 14999 kPa, x2 = 0.8988 | 346.055 ± 2.4
353.16 K, 3001 kPa, x2 = 0.6015 | 35.135 ± 0.18
353.16 K, 15004 kPa, x2 = 0.7985 | 288.885 ± 1.8
353.17 K, 9004 kPa, x2 = 0.3997 | 93.855 ± 0.49
353.18 K, 3996 kPa, x2 = 0.7985 | 56.892 ± 0.27
353.18 K, 4002 kPa, x2 = 0.2017 | 30.584 ± 0.19
353.18 K, 4004 kPa, x2 = 0.3997 | 38.873 ± 0.2
353.18 K, 11994 kPa, x2 = 0.7985 | 214.517 ± 1.2
353.22 K, 8998 kPa, x2 = 0.7985 | 147.521 ± 0.75
353.22 K, 17999 kPa, x2 = 0.0998 | 127.527 ± 0.85
353.23 K, 6000 kPa, x2 = 0.0998 | 40.53 ± 0.26
353.24 K, 11994 kPa, x2 = 0.0998 | 84.225 ± 0.55
353.26 K, 6007 kPa, x2 = 0.2017 | 46.942 ± 0.28
353.27 K, 9000 kPa, x2 = 0.2017 | 72.326 ± 0.43
353.28 K, 12001 kPa, x2 = 0.2017 | 98.585 ± 0.6
353.37 K, 17994 kPa, x2 = 0.2017 | 150.552 ± 0.93
